For 32 compounds, glass transition temperature results are on record in the PolyMetriX glass transition set.

In turn, `*/C(C)=C(/*)[Si](C)(C)C` (repeat unit) had a glass transition temperature of 75.00 °C.
For `*/C(C)=C(/*)[Si](C)(C)CCCCCC` (repeat unit), the glass transition temperature came out at 200.00 °C.
For `*C(=O)c1ccc(C(=O)N(*)c2ccccc2)c(Sc2ccccc2)c1` (repeat unit), the glass transition temperature turned out to be 152.00 °C.
Under `*C(=O)c1cccc(C(=O)N(*)c2ccccc2)c1` (repeat unit) stands 148.00 °C.
`*CC(*)c1cc[n+](CCCCCCCC)cc1` (repeat unit) gave a glass transition temperature of 206.20 °C.
The result for `*CC(*)c1ccc(-c2cccc3nsnc23)cc1` (repeat unit) reads 150.00 °C.
For `*CC(*)c1ccc(B(Oc2ccc(-c3ccc(N(C)C)cc3)c3cccnc23)c2ccc(C(C)(C)C)cc2)cc1` (repeat unit), the glass transition temperature stood at 230.00 °C.
The compound `*CC(*)c1ccc(C(=O)CCCC)cc1` (repeat unit) yielded a glass transition temperature of 70.00 °C.
The result for `*CC(*)c1ccc(C(=O)Cc2ccccc2)cc1` (repeat unit) reads 78.00 °C; that for `*CC(*)c1ccc(C(=O)N(C)C)cc1` (repeat unit), 125.00 °C.
Consider `*CC(*)c1ccc(C(=O)N2CCCCC2)cc1` (repeat unit), for which the glass transition temperature worked out at 114.00 °C.
On to `*CC(*)c1ccc(C(=O)OCCC)cc1` (repeat unit), for which the glass transition temperature worked out at 92.00 °C.
Consider `*CC(*)c1ccc(C(C)(C)O)cc1` (repeat unit), for which the glass transition temperature worked out at 170.00 °C.
On to `*CC(*)c1ccc(C(C)C)cc1` (repeat unit), for which the glass transition temperature stood at 62.40 °C.
In turn, `*CC(*)c1ccc(C([Si](C)(C)C)[Si](C)(C)C)cc1` (repeat unit) registered a glass transition temperature of 156.00 °C.
For `*CC(*)c1ccc(C)nc1` (repeat unit), the glass transition temperature came out at 136.00 °C.
Regarding `*CC(*)c1ccc(CC)cc1` (repeat unit), the glass transition temperature is 71.40 °C.
With `*CC(*)c1ccc(CCCCCCCCCC)cc1` (repeat unit), the glass transition temperature was -65.00 °C.
The result for `*CC(*)c1ccc(CCCCCCCCCCCC)cc1` (repeat unit) reads -52.00 °C; that for `*CC(*)c1ccc(CCCCCCCCCCCCCCCCCC)cc1` (repeat unit), 32.00 °C.
The result for `*CC(*)c1ccc(COCC(CC)CCCC)cc1` (repeat unit) reads -23.00 °C; that for `*CC(*)c1ccc(COCC(F)(F)C(F)(F)C(F)(F)C(F)(F)F)cc1` (repeat unit), 23.00 °C.
The result for `*CC(*)c1ccc(COCCC(F)(F)C(F)(F)C(F)(F)C(F)(F)C(F)(F)C(F)(F)F)cc1` (repeat unit) reads 18.00 °C.
Consider `*CC(*)c1ccc(COCCOCC)cc1` (repeat unit), for which the glass transition temperature was determined as 0.00 °C.
For the compound `*CC(*)c1ccc(COc2ccc(-c3ccc(-c4ccc(C)cc4)c4nsnc34)cc2)cc1` (repeat unit), the glass transition temperature came out at 117.00 °C.
The result for `*CC(*)c1ccc(COc2ccc(-c3ccc(-c4ccc(C)s4)c4nsnc34)cc2)cc1` (repeat unit) reads 130.00 °C.
The result for `*CC(*)c1ccc(COc2ccc(-c3ccc(C#N)cc3)cc2)cc1` (repeat unit) reads 132.00 °C.
As to `*CC(*)c1ccc(Cl)c(C)c1` (repeat unit), the glass transition temperature was found to be 114.00 °C.
`*CC(*)c1ccc(Cl)cc1C` (repeat unit) had a glass transition temperature of 145.00 °C.
The result for `*CC(*)c1ccc(O)c(OC)c1` (repeat unit) reads 142.00 °C.
Compound `*CC(*)c1ccc([Si](C)(C)C)cc1` (repeat unit) had a glass transition temperature of 136.00 °C.
As to `*Oc1ccc(C(C)(C)c2ccc(OC(=O)NC(=O)c3cc(C(=O)NC(*)=O)cc(C(C)(C)C)c3)cc2)cc1` (repeat unit), the glass transition temperature is 123.50 °C.
